This passage reports IC50 results from US12371428B2 (Exelixis, Inc., priority 2019, dated 2025).

Type in all cases: cell-based
Assay [1] has as its target AXL (phospho-AXL, Gas6-stimulated A-172 glioblastoma cells) (Homo sapiens (Human), UniProt P30530). Nature of the assay: AXL autophosphorylation ELISA in A-172 cells (Example E). To be noted: cellular activity; AXL autophosphorylation ELISA in A-172 cells; read-out: Axl IC50. The essentials: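 Phospho-AXL was measured by ELISA in lysates of Gas6-stimulated A-172 cells, starved 24 h in serum-free medium and exposed 1 h to an 8-point compound dilution at 0.3% DMSO.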

In assay [2] the target is Met (phospho-Met, HGF-stimulated PC-3 prostate cancer cells) (Homo sapiens (Human), UniProt P08581). As to the kind of experiment: Met autophosphorylation ELISA in PC-3 cells (Example F). The note with it: cellular activity; Met autophosphorylation ELISA in PC-3 cells; read-out: c-Met IC50. Summed up: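 Sandwich ELISA for phospho-Met (panTyr) in PC-3 lysates. Cells starved 3 h serum-free, compound 1 h (8-pt curve, 0.3% DMSO), HGF 100 ng/mL 10 min. 100% = HGF + DMSO; 0% = HGF + reference inhibitor. IC50 by 4-parameter fit.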
Chain of Met (phospho-Met, HGF-stimulated PC-3 prostate cancer cells) (P08581 25-1390): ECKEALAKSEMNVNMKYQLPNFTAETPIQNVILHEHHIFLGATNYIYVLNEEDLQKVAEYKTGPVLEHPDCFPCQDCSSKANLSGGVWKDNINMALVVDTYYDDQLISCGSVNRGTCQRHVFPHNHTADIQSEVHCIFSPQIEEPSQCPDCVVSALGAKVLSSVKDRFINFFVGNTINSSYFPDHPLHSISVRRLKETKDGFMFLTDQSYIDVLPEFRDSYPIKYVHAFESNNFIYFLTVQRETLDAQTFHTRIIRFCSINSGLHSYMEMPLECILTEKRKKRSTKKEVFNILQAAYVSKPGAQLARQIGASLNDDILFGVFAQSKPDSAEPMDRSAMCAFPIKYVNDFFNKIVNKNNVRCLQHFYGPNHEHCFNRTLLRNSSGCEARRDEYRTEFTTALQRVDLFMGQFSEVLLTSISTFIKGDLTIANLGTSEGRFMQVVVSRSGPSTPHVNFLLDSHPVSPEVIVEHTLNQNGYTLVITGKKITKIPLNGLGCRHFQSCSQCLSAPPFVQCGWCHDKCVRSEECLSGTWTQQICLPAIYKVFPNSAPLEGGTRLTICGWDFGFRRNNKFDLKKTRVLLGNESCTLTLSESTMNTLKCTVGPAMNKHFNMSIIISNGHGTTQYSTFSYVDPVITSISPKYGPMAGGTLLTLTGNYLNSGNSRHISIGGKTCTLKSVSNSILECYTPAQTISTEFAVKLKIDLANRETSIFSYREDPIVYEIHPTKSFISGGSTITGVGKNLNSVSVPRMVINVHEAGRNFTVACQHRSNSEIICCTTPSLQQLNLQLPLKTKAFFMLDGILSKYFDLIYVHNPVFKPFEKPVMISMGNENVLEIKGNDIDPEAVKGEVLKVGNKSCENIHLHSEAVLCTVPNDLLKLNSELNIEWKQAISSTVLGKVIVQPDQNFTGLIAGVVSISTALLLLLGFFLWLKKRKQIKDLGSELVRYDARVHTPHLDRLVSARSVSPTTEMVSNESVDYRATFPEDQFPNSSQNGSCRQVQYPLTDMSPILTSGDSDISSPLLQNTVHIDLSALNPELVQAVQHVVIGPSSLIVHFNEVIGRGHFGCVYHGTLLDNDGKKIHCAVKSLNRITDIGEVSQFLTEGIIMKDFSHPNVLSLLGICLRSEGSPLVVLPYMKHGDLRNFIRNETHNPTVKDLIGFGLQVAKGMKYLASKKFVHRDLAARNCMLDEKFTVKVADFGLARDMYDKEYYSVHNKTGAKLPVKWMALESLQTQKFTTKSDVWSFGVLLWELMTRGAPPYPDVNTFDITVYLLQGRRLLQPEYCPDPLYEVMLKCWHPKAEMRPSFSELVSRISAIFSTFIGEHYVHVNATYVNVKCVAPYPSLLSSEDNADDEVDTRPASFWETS

Assay [3] has as its target KDR (phospho-KDR, VEGF165-stimulated HUVEC cells) (Homo sapiens (Human), UniProt P35968). As to the kind of experiment: KDR autophosphorylation ELISA in HUVEC cells (Example G). To be noted: cellular activity; KDR autophosphorylation ELISA in HUVEC cells. The essentials: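 Inhibition of VEGF165-driven KDR autophosphorylation is measured in primary human umbilical vein endothelial cells after 24 h serum deprivation. Compound preincubation lasts 1 h before a 5-minute challenge with 100 ng/mL ligand, and phosphorylated receptor is then measured by ELISA in the lysates.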
In general terms: ELISA stands for enzyme-linked immunosorbent assay.

For assay [4], the target named is Mer (phospho-Mer, MERTK-transfected 293A cells) (Homo sapiens (Human), UniProt Q12866). Nature of the assay: Mer autophosphorylation ELISA in transient transfected 293A cells (Example H). The note with it: cellular activity; Mer autophosphorylation ELISA in transient transfected 293A cells. The essentials: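 IC50 from phospho-Mer ELISA of MERTK-transfected 293A cell lysates after 1 h treatment with serially diluted compound in serum-free medium.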
Chain of Mer (phospho-Mer, MERTK-transfected 293A cells) (Q12866 21-999): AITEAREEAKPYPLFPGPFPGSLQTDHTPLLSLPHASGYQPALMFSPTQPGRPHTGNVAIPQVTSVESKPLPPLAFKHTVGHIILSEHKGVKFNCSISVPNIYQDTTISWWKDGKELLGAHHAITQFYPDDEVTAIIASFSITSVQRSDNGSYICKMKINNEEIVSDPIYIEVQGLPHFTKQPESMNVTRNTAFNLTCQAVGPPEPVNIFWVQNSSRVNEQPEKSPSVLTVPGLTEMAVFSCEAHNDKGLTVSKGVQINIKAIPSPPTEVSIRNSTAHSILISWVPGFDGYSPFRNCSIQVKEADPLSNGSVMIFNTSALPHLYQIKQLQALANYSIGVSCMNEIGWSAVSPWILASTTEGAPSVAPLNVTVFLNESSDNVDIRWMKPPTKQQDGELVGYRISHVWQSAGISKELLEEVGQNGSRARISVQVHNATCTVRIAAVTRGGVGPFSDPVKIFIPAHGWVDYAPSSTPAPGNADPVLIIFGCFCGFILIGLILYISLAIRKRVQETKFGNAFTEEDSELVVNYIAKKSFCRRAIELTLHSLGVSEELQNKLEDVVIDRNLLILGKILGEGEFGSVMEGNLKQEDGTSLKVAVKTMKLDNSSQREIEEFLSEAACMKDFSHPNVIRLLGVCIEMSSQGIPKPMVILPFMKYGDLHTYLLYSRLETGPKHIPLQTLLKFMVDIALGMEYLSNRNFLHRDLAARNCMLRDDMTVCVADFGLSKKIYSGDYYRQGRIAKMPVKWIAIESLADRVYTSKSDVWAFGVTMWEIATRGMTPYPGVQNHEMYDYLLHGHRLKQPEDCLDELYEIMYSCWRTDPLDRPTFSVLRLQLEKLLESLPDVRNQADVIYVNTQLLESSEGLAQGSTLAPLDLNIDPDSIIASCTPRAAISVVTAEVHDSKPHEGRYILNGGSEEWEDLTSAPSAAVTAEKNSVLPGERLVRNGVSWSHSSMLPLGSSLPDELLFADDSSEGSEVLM

Chain of KDR (phospho-KDR, VEGF165-stimulated HUVEC cells) (P35968 20-1356): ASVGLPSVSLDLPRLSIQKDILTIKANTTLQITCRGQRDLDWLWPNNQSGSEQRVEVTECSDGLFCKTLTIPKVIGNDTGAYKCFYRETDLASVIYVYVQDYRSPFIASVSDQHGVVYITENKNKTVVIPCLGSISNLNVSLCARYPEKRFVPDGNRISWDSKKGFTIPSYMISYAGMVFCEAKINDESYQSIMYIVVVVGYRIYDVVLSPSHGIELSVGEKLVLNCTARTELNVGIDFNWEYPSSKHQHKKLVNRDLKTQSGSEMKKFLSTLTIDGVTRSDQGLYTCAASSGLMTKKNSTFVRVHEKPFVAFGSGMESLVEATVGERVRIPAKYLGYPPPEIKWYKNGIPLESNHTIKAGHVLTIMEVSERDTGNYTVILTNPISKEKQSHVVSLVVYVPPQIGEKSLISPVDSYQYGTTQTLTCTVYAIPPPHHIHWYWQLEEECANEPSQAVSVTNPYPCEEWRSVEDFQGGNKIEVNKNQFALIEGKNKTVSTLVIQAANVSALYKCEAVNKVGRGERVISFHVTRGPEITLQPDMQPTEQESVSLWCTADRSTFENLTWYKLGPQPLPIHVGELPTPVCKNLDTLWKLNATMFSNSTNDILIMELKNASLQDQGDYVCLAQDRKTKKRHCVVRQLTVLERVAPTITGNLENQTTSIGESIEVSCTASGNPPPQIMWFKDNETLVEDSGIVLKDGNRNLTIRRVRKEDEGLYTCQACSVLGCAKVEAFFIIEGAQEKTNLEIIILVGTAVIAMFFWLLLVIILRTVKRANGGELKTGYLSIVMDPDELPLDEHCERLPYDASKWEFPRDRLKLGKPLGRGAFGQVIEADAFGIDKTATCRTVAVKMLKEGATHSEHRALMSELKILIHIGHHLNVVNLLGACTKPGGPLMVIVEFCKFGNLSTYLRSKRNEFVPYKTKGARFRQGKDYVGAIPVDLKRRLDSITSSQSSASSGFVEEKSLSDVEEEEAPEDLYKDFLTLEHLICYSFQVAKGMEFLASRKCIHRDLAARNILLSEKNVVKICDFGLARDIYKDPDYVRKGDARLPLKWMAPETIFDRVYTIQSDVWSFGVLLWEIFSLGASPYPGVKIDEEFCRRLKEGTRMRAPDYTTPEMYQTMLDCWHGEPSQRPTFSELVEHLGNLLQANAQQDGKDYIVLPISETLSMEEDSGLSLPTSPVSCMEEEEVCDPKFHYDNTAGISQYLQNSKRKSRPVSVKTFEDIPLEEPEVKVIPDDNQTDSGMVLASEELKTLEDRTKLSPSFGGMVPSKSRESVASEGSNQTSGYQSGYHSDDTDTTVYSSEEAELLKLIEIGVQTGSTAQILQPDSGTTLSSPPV
Chain of AXL (phospho-AXL, Gas6-stimulated A-172 glioblastoma cells) (P30530 26-894): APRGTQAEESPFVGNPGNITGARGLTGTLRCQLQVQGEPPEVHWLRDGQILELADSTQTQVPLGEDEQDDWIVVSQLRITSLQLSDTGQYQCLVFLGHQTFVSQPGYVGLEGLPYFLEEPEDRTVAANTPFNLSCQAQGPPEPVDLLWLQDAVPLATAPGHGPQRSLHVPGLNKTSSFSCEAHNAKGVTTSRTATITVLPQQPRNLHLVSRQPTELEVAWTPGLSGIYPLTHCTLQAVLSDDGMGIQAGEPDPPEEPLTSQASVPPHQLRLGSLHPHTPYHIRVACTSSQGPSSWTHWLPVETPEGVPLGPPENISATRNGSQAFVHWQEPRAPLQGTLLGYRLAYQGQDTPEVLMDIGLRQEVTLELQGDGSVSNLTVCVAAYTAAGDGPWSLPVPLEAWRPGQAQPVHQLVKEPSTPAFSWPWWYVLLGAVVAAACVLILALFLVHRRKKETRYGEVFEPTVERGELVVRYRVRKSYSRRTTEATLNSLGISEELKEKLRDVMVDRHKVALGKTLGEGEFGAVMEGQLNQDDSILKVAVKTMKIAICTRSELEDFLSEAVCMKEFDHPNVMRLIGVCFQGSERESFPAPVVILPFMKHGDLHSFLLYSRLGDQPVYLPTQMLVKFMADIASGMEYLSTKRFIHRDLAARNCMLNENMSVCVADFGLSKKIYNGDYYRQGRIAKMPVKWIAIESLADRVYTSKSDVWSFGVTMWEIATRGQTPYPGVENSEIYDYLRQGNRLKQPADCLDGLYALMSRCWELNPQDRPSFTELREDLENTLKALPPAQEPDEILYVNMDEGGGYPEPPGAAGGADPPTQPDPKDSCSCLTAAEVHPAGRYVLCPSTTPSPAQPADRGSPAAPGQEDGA

As to `C=C(C)c1cnc2c(Oc3ccc(NC(=O)c4nnc(C)c(-c5ccc(F)cc5)c4OCC)cc3F)ccnc2c1` [Compound 476, 4-ethoxy-5-(4-fluorophenyl)-N-[3-fluoro-4-[(7-prop-1-en-2-yl-1,5-naphthyridin-4-yl)oxy]phenyl]-6-methylpyridazine-3-carboxamide], the half-inhibitory concentration (IC50) in assay [1], in assay [2], in assay [3] and in assay [4] was less than 100 nM in each case.
On to `C=C(C)c1cnc2c(Oc3ccc(NC(=O)c4nn(C)c(C)c(-c5ccc(F)cc5)c4=O)cc3F)ccnc2c1` [Compound 477, 5-(4-fluorophenyl)-N-[3-fluoro-4-[(7-prop-1-en-2-yl-1,5-naphthyridin-4-yl)oxy]phenyl]-1,6-dimethyl-4-oxopyridazine-3-carboxamide], for which the IC50 is less than 100 nM in assay [1], less than 100 nM in assay [2], more than 300 nM in assay [3] and less than 100 nM in assay [4].
As to `C=C(C)c1cnc2c(Oc3ccc(NC(=O)c4nnc(C)c(-c5ccc(F)cc5)c4OC)cc3F)ccnc2c1` [Compound 478, 5-(4-fluorophenyl)-N-[3-fluoro-4-[(7-prop-1-en-2-yl-1,5-naphthyridin-4-yl)oxy]phenyl]-4-methoxy-6-methylpyridazine-3-carboxamide], the IC50 in assay [1], in assay [2], in assay [3] and in assay [4] was less than 100 nM throughout.
Take `COCCOc1cc2nccc(Oc3ccc(NC(=O)c4ccc(C)n(-c5ccc(F)cc5)c4=O)cc3F)c2nc1OC` [Compound 484, N-[3-fluoro-4-[[6-methoxy-7-(2-methoxyethoxy)-1,5-naphthyridin-4-yl]oxy]phenyl]-1-(4-fluorophenyl)-6-methyl-2-oxopyridine-3-carboxamide]: the IC50 in assay [1], in assay [2], in assay [3] and in assay [4] was less than 100 nM each time.
`COCCOc1cc2nccc(Oc3ccc(NC(=O)c4c(C)cc(C)n(-c5ccc(F)cc5)c4=O)cc3F)c2nc1OC` [Compound 485, N-[3-fluoro-4-[[6-methoxy-7-(2-methoxyethoxy)-1,5-naphthyridin-4-yl]oxy]phenyl]-1-(4-fluorophenyl)-4,6-dimethyl-2-oxopyridine-3-carboxamide]: the IC50 in assay [1], in assay [2], in assay [3] and in assay [4] was less than 100 nM in each case.
In the case of `COCCOc1cc2nccc(Oc3ccc(NC(=O)c4cn(C)c(C)c(-c5ccc(F)cc5)c4=O)cc3F)c2nc1OC` [Compound 486, N-[3-fluoro-4-[[6-methoxy-7-(2-methoxyethoxy)-1,5-naphthyridin-4-yl]oxy]phenyl]-5-(4-fluorophenyl)-1,6-dimethyl-4-oxopyridine-3-carboxamide], the IC50 in assay [1], in assay [2], in assay [3] and in assay [4] was less than 100 nM throughout.
Turning to `COCCOc1cc2nccc(Oc3ccc(NC(=O)c4c(C)nc(C)c(-c5ccc(F)cc5C)c4O)cc3F)c2nc1OC` [Compound 487, N-[3-fluoro-4-[[6-methoxy-7-(2-methoxyethoxy)-1,5-naphthyridin-4-yl]oxy]phenyl]-5-(4-fluoro-2-methylphenyl)-4-hydroxy-2,6-dimethylpyridine-3-carboxamide], the concentration for half-maximal inhibition (IC50) in assay [1], in assay [2], in assay [3] and in assay [4] was less than 100 nM throughout.
Turning to `COc1cc2nccc(Oc3ccc(NC(=O)c4nnc(C)c(-c5ccc(F)cc5)c4Cl)cc3F)c2nc1OC` [Compound 488, 4-chloro-N-[4-[(6,7-dimethoxy-1,5-naphthyridin-4-yl)oxy]-3-fluorophenyl]-5-(4-fluorophenyl)-6-methylpyridazine-3-carboxamide], the IC50 in assay [1] is 100 to 300 nM; in assay [2], more than 300 nM; in assay [3], more than 300 nM; in assay [4], less than 100 nM.
Regarding `COc1cc2nccc(Oc3ccc(NC(=O)c4nnc(C)c(-c5ccc(F)cc5C)c4OC)cc3F)c2nc1OC` [Compound 489, N-[4-[(6,7-dimethoxy-1,5-naphthyridin-4-yl)oxy]-3-fluorophenyl]-5-(4-fluoro-2-methylphenyl)-4-methoxy-6-methylpyridazine-3-carboxamide], the half-maximal inhibitory concentration (IC50) in assay [1], in assay [2], in assay [3] and in assay [4] was less than 100 nM in each case.
`COc1cc2nccc(Oc3ccc(NC(=O)c4c(C)ncc(Br)c4O)cc3F)c2nc1OC` [Compound 490, 5-bromo-N-[4-[(6,7-dimethoxy-1,5-naphthyridin-4-yl)oxy]-3-fluorophenyl]-4-hydroxy-2-methylpyridine-3-carboxamide]: the IC50 is 100 to 300 nM in assay [1], less than 100 nM in assay [2], less than 100 nM in assay [3] and less than 100 nM in assay [4].
On to `COc1cc2nccc(Oc3ccc(NC(=O)c4cn5cc(C)oc5c(-c5ccc(F)cc5)c4=O)cc3F)c2nc1OC` [Compound 491, N-[4-[(6,7-dimethoxy-1,5-naphthyridin-4-yl)oxy]-3-fluorophenyl]-8-(4-fluorophenyl)-2-methyl-7-oxo-[1,3]oxazolo[3,2-a]pyridine-6-carboxamide], for which the IC50 in assay [1] is less than 100 nM; in assay [2] it was less than 100 nM; in assay [3], more than 300 nM; in assay [4], less than 100 nM.
`Cc1ccc(C(=O)Nc2ccc(Oc3ccnc4cnc(Cl)cc34)c(F)c2)c(=O)n1-c1ccc(F)cc1` [Compound 496, N-[4-[(6-chloro-1,7-naphthyridin-4-yl)oxy]-3-fluorophenyl]-1-(4-fluorophenyl)-6-methyl-2-oxopyridine-3-carboxamide]: the IC50 in assay [1], in assay [2], in assay [3] and in assay [4] was less than 100 nM in each case.
Turning to `Cc1ncc(C(=O)Nc2ccc(Oc3ccnc4cnc(Cl)cc34)c(F)c2)c(=O)n1-c1ccc(F)cc1` [Compound 497, N-[4-[(6-chloro-1,7-naphthyridin-4-yl)oxy]-3-fluorophenyl]-1-(4-fluorophenyl)-2-methyl-6-oxopyrimidine-5-carboxamide], the IC50 in assay [1] is less than 100 nM; in assay [2], less than 100 nM; in assay [3], more than 300 nM; in assay [4] it was less than 100 nM.
Turning to `Cc1cnc(C(=O)Nc2ccc(Oc3ccnc4cnc(Cl)cc34)c(F)c2)c(=O)n1-c1ccc(F)cc1` [Compound 498, N-[4-[(6-chloro-1,7-naphthyridin-4-yl)oxy]-3-fluorophenyl]-4-(4-fluorophenyl)-5-methyl-3-oxopyrazine-2-carboxamide], the 50% inhibitory concentration (IC50) is less than 100 nM in assay [1], less than 100 nM in assay [2], more than 300 nM in assay [3] and less than 100 nM in assay [4].
Regarding `COc1cc2c(Oc3ccc(NC(=O)c4cnc(C)n(-c5ccc(F)cc5)c4=O)cc3F)ccnc2cn1` [Compound 499, N-[3-fluoro-4-[(6-methoxy-1,7-naphthyridin-4-yl)oxy]phenyl]-1-(4-fluorophenyl)-2-methyl-6-oxopyrimidine-5-carboxamide], the IC50 in assay [1] is less than 100 nM; in assay [2] it was less than 100 nM; in assay [3], 100 to 300 nM; in assay [4], less than 100 nM.
Consider `COc1cc2c(Oc3ccc(NC(=O)c4ncc(C)n(-c5ccc(F)cc5)c4=O)cc3F)ccnc2cn1` [Compound 500, N-[3-fluoro-4-[(6-methoxy-1,7-naphthyridin-4-yl)oxy]phenyl]-4-(4-fluorophenyl)-5-methyl-3-oxopyrazine-2-carboxamide], for which the IC50 was less than 100 nM in assay [1], less than 100 nM in assay [2], 100 to 300 nM in assay [3] and less than 100 nM in assay [4].
Consider `COCc1nc(C)c(-c2ccc(F)cc2)c(O)c1C(=O)Nc1ccc(Oc2ccnc3cnc(OC)cc23)c(F)c1` [Compound 501, N-[3-Fluoro-4-[(6-methoxy-1,7-naphthyridin-4-yl)oxy]phenyl]-5-(4-fluorophenyl)-4-hydroxy-2-(methoxymethyl)-6-methylpyridine-3-carboxamide], for which the IC50 in assay [1], in assay [2], in assay [3] and in assay [4] was less than 100 nM in each case.
Consider `COCc1nc(C)c(-c2ccc(F)cc2)c(O)c1C(=O)Nc1ccc(Oc2ccnc3cnc(Cl)cc23)c(F)c1` [Compound 502, N-[4-[(6-Chloro-1,7-naphthyridin-4-yl)oxy]-3-fluorophenyl]-5-(4-fluorophenyl)-4-hydroxy-2-(methoxymethyl)-6-methylpyridine-3-carboxamide], for which the IC50 in assay [1], in assay [2], in assay [3] and in assay [4] was less than 100 nM in each case.

A word on the IC50: it is the concentration needed to halve the response being measured.
